Measured values as given in ChEMBL document CHEMBL4382200, “Discovery of Novel 7-Aryl 7-Deazapurine 3'-Deoxy-ribofuranosyl Nucleosides with Potent Activity against Trypanosoma cruzi” (J Med Chem, 2018).
Calls of active or inactive are those of the source. The rule behind the calls is not given here.

Tests used:
[1] = molecular target: T1, UDP-glucuronosyltransferases (UGTs) (family) (Homo sapiens, UniProt O60656+O75310+O75795+P06133+P0DTE4+P0DTE5+P16662+P19224+P22309+P22310+P35503+P35504+P36537+P54855+Q6UWM9+Q9BY64+Q9HAW7+Q9HAW8+Q9HAW9); experiment: Drug metabolism in human liver microsome S9 fraction assessed as UGT-mediated metabolism by measuring compound remaining at 5 uM pretreated with UDPGA and measured after 30 mins by UPLC-MS/MS analysis; assay type: ADME, microsomes; conditions: liver microsome S9 fraction, read-out: Stability
CYP450 [2] = experiment: Drug metabolism in dog liver microsome S9 fraction assessed as CYP450-mediated metabolism by measuring compound remaining at 5 uM pretreated with NADPH and measured after 30 mins by UPLC-MS/MS analysis; assay type: ADME, microsomes, Canis lupus familiaris; conditions: liver microsome S9 fraction, read-out: Stability
UGT [3] = experiment: Drug metabolism in dog liver microsome S9 fraction assessed as UGT-mediated metabolism by measuring compound remaining at 5 uM pretreated with UDPGA and measured after 60 mins by UPLC-MS/MS analysis; assay type: ADME, microsomes, Canis lupus familiaris; conditions: liver microsome S9 fraction, read-out: Stability
UGT [4] = experiment: Drug metabolism in rat liver microsome S9 fraction assessed as UGT-mediated metabolism by measuring compound remaining at 5 uM pretreated with UDPGA and measured after 60 mins by UPLC-MS/MS analysis; assay type: ADME, microsomes; conditions: liver microsome S9 fraction, read-out: Stability
[5] = molecular target: T1, UDP-glucuronosyltransferases (UGTs) (family); experiment: Drug metabolism in human liver microsome S9 fraction assessed as UGT-mediated metabolism by measuring compound remaining at 5 uM pretreated with UDPGA and measured after 60 mins by UPLC-MS/MS analysis; assay type: ADME, microsomes; conditions: liver microsome S9 fraction, read-out: Stability
Cytochrome P450 (family) [6] = molecular target: T2, Cytochrome P450 (family) (Homo sapiens, UniProt P04798+P05177+P05181+P08684+P10632+P10635+P11509+P11712+P13584+P20813+P20815+P20853+P24462+P24903+P33260+P33261+P51589+P78329+P98187+Q02928+Q08477+Q16678+Q16696+Q5TCH4+Q6VVX0+Q7Z449+Q8TAV3+Q96SQ9+Q9HB55); experiment: Drug metabolism in human liver microsome S9 fraction assessed as CYP450-mediated metabolism by measuring compound remaining at 5 uM pretreated with NADPH and measured after 30 mins by UPLC-MS/MS analysis; assay type: ADME, microsomes; conditions: liver microsome S9 fraction, read-out: Stability
Trypanosoma cruzi [7] = experiment: Trypanocidal activity against Trypanosoma cruzi Y strain bloodstream trypomastigotes isolated from infected Swiss mouse […] assessed as parasite death after 24 hrs by neubauer chamber based light microscopy; assay type: functional, organism-based
Trypanosoma cruzi [8] = experiment: (§1) Antiparasitic activity against Trypanosoma cruzi Y strain bloodstream trypomastigotes infected in Swiss Webster mouse assessed as protection against parasite-induced mortality at 25 mg/kg, po bid via gavage administered for 5 consecutive days starting from day 5 post infection measured at day 15 to day 22 post infection; assay type: functional, organism-based
Cytochrome P450 (family) [9] = molecular target: T2, Cytochrome P450 (family); experiment: Drug metabolism in human liver microsome S9 fraction assessed as CYP450-mediated metabolism by measuring compound remaining at 5 uM pretreated with NADPH and measured after 15 mins by UPLC-MS/MS analysis; assay type: ADME, microsomes; conditions: liver microsome S9 fraction, read-out: Stability
CYP450 [10] = experiment: Drug metabolism in mouse liver microsome S9 fraction assessed as CYP450-mediated metabolism by measuring compound remaining at 5 uM pretreated with NADPH and measured after 60 mins by UPLC-MS/MS analysis; assay type: ADME, microsomes; conditions: liver microsome S9 fraction, read-out: Stability
Cytochrome P450 (family) [11] = molecular target: T2, Cytochrome P450 (family); experiment: Drug metabolism in human liver microsome S9 fraction assessed as CYP450-mediated metabolism by measuring compound remaining at 5 uM pretreated with NADPH and measured after 60 mins by UPLC-MS/MS analysis; assay type: ADME, microsomes; conditions: liver microsome S9 fraction, read-out: Stability
Trypanosoma cruzi [12] = experiment: Antiparasitic activity against Trypanosoma cruzi Y strain bloodstream trypomastigotes infected in Swiss Webster mouse at 25 mg/kg, po bid via gavage administered for 5 consecutive days starting from day 5 post infection followed by cyclophosphamide-induced immunosuppression on day 40 post infection for 4 consecutive days; assay type: functional, organism-based
CYP450 [13] = experiment: Drug metabolism in rat liver microsome S9 fraction assessed as CYP450-mediated metabolism by measuring compound remaining at 5 uM pretreated with NADPH and measured after 30 mins by UPLC-MS/MS analysis; assay type: ADME, microsomes; conditions: liver microsome S9 fraction, read-out: Stability
UGT [14] = experiment: Drug metabolism in rat liver microsome S9 fraction assessed as UGT-mediated metabolism by measuring compound remaining at 5 uM pretreated with UDPGA and measured after 30 mins by UPLC-MS/MS analysis; assay type: ADME, microsomes; conditions: liver microsome S9 fraction, read-out: Stability
[15] = Therapeutic index, ratio EC50 for human MRC5 SV2 cells to EC50 for Trypanosoma cruzi Tulahuen CL2 intracellular amastigotes; assay type: toxicity, cell-based; conditions: read-out: Ratio EC50
Trypanosoma cruzi [16] = experiment: Antiparasitic activity against Trypanosoma cruzi Tulahuen CL2 intracellular amastigotes expressing beta-galactosidase infected in human MRC5 SV2 cells after 7 days by chlorophenol red beta-D-galactopyranoside-based spectrophotometric analysis; assay type: functional, organism-based; conditions: Tulahuen CL2, MRC-5 SV2, 168 h, read-out: EC50
UGT [17] = experiment: Drug metabolism in rat liver microsome S9 fraction assessed as UGT-mediated metabolism by measuring compound remaining at 5 uM pretreated with UDPGA and measured after 15 mins by UPLC-MS/MS analysis; assay type: ADME, microsomes; conditions: liver microsome S9 fraction, read-out: Stability
Trypanosoma cruzi [18] = experiment: Antiparasitic activity against Trypanosoma cruzi Y strain bloodstream trypomastigotes infected in Swiss Webster mouse assessed as protection against parasite-induced mortality by measuring survivial at 25 mg/kg, po bid via gavage administered for 5 consecutive days starting from day 5 post infection measured at day 40 post infection relative to control; assay type: functional
[19] = Cytotoxicity against Swiss mouse embryonic cardiomyocytes assessed as reduction in cell viability after 24 hrs by prestoblue-staining based colorimetry; conditions: Cardiac muscle cell
CYP450 [20] = experiment: Drug metabolism in mouse liver microsome S9 fraction assessed as CYP450-mediated metabolism by measuring compound remaining at 5 uM pretreated with NADPH and measured after 30 mins by UPLC-MS/MS analysis; assay type: ADME, microsomes; conditions: liver microsome S9 fraction, read-out: Stability
[21] = molecular target: T1, UDP-glucuronosyltransferases (UGTs) (family); experiment: Drug metabolism in human liver microsome S9 fraction assessed as UGT-mediated metabolism by measuring compound remaining at 5 uM pretreated with UDPGA and measured after 15 mins by UPLC-MS/MS analysis; assay type: ADME, microsomes; conditions: liver microsome S9 fraction, read-out: Stability
UGT [22] = experiment: Drug metabolism in mouse liver microsome S9 fraction assessed as UGT-mediated metabolism by measuring compound remaining at 5 uM pretreated with UDPGA and measured after 15 mins by UPLC-MS/MS analysis; assay type: ADME, microsomes; conditions: liver microsome S9 fraction, read-out: Stability
UGT [23] = experiment: Drug metabolism in mouse liver microsome S9 fraction assessed as UGT-mediated metabolism by measuring compound remaining at 5 uM pretreated with UDPGA and measured after 60 mins by UPLC-MS/MS analysis; assay type: ADME, microsomes; conditions: liver microsome S9 fraction, read-out: Stability
[24] = Toxicity in Swiss Webster mouse infected with Trypanosoma cruzi Y strain bloodstream trypomastigotes assessed as weight loss at 25 mg/kg, po bid via gavage administered for 5 consecutive days measured at day 40 post infection; assay type: organism-based; conditions: in vivo
CYP450 [25] = experiment: Drug metabolism in rat liver microsome S9 fraction assessed as CYP450-mediated metabolism by measuring compound remaining at 5 uM pretreated with NADPH and measured after 15 mins by UPLC-MS/MS analysis; assay type: ADME, microsomes; conditions: liver microsome S9 fraction, read-out: Stability
Trypanosoma cruzi [26] = experiment: as §1, with “15” for “15 to day 22”; assay type: functional, organism-based
[27] = Cytotoxicity against human MRC5 SV2 cells assessed as reduction in cell viability after 3 days resazurin-based fluorimetric assay; conditions: MRC-5 SV2, 72 h
Trypanosoma cruzi [28] = experiment: Trypanocidal activity against Trypanosoma cruzi Y strain intracellular amastigotes infected in mouse cardiac cells assessed as parasite death after 168 hrs by Giemsa-staining based assay; assay type: functional, organism-based
CYP450 [29] = experiment: Drug metabolism in dog liver microsome S9 fraction assessed as CYP450-mediated metabolism by measuring compound remaining at 5 uM pretreated with NADPH and measured after 15 mins by UPLC-MS/MS analysis; assay type: ADME, microsomes, Canis lupus familiaris; conditions: liver microsome S9 fraction, read-out: Stability
CYP450 [30] = experiment: Drug metabolism in mouse liver microsome S9 fraction assessed as CYP450-mediated metabolism by measuring compound remaining at 5 uM pretreated with NADPH and measured after 15 mins by UPLC-MS/MS analysis; assay type: ADME, microsomes; conditions: liver microsome S9 fraction, read-out: Stability
UGT [31] = experiment: Drug metabolism in dog liver microsome S9 fraction assessed as UGT-mediated metabolism by measuring compound remaining at 5 uM pretreated with UDPGA and measured after 15 mins by UPLC-MS/MS analysis; assay type: ADME, microsomes, Canis lupus familiaris; conditions: liver microsome S9 fraction, read-out: Stability
CYP450 [32] = experiment: Drug metabolism in dog liver microsome S9 fraction assessed as CYP450-mediated metabolism by measuring compound remaining at 5 uM pretreated with NADPH and measured after 60 mins by UPLC-MS/MS analysis; assay type: ADME, microsomes, Canis lupus familiaris; conditions: liver microsome S9 fraction, read-out: Stability
UGT [33] = experiment: Drug metabolism in mouse liver microsome S9 fraction assessed as UGT-mediated metabolism by measuring compound remaining at 5 uM pretreated with UDPGA and measured after 30 mins by UPLC-MS/MS analysis; assay type: ADME, microsomes; conditions: liver microsome S9 fraction, read-out: Stability
UGT [34] = experiment: Drug metabolism in dog liver microsome S9 fraction assessed as UGT-mediated metabolism by measuring compound remaining at 5 uM pretreated with UDPGA and measured after 30 mins by UPLC-MS/MS analysis; assay type: ADME, microsomes, Canis lupus familiaris; conditions: liver microsome S9 fraction, read-out: Stability
Trypanosoma cruzi [35] = experiment: Antiparasitic activity against Trypanosoma cruzi Y strain bloodstream trypomastigotes infected in Swiss Webster mouse assessed as decrease in parasitemia at 25 mg/kg, po bid via gavage administered for 5 consecutive days measured at day 8 post infection by direct microscopic counting relative to control; assay type: functional; set-up: scale not given: the % may be the effect or the level left
CYP450 [36] = experiment: Drug metabolism in rat liver microsome S9 fraction assessed as CYP450-mediated metabolism by measuring compound remaining at 5 uM pretreated with NADPH and measured after 60 mins by UPLC-MS/MS analysis; assay type: ADME, microsomes; conditions: liver microsome S9 fraction, read-out: Stability

With `Nc1ncnc2c1c(-c1ccc(Cl)cc1)cn2[C@@H]1O[C@H](CO)C[C@H]1O` the remaining at 0.5 h, 5 µM [1] was 106%, the remaining at 0.5 h, 5 µM (CYP450 [2]) was 96% and the remaining at 1 h, 5 µM (UGT [3]) was 95%. For the same compound, the remaining at 1 h, 5 µM (UGT [4]) was 96%, the remaining at 1 h, 5 µM [5] was 100% and the remaining at 0.5 h, 5 µM (Cytochrome P450 (family) [6]) was 95%. For the same compound, the EC50 (Trypanosoma cruzi [7]) was greater than 20 µM, the Activity (Trypanosoma cruzi [8]) was “Active” and the remaining at 0.25 h, 5 µM (Cytochrome P450 (family) [9]) was 102%. For the same compound, the remaining at 1 h, 5 µM (CYP450 [10]) was 68%, the remaining at 1 h, 5 µM (Cytochrome P450 (family) [11]) was 93% and the Activity (Trypanosoma cruzi [12]) was “inactive”. The remaining at 0.5 h, 5 µM (CYP450 [13]) was 101%, the remaining at 0.5 h, 5 µM (UGT [14]) was 96% and the selectivity ratio [15] was 410. For the same compound, the EC50 (Trypanosoma cruzi [16]) was 0.047 µM, the remaining at 0.25 h, 5 µM (UGT [17]) was 101% and the Activity (Trypanosoma cruzi [18]) was 100%. The EC50 [19] was 284 µM, the remaining at 0.5 h, 5 µM (CYP450 [20]) was 75% and the remaining at 0.25 h, 5 µM [21] was 100%. For the same compound, the remaining at 0.25 h, 5 µM (UGT [22]) was 101%, the remaining at 1 h, 5 µM (UGT [23]) was 89% and the Activity [24] was “Non-Toxic”. For the same compound, the remaining at 0.25 h, 5 µM (CYP450 [25]) was 101%, the Activity (Trypanosoma cruzi [26]) was “Active” and the EC50 [27] was 19.1 µM. The EC50 (Trypanosoma cruzi [28]) was 0.029 µM, the remaining at 0.25 h, 5 µM (CYP450 [29]) was 98% and the remaining at 0.25 h, 5 µM (CYP450 [30]) was 86%. For the same compound, the remaining at 0.25 h, 5 µM (UGT [31]) was 96%, the remaining at 1 h, 5 µM (CYP450 [32]) was 90% and the remaining at 0.5 h, 5 µM (UGT [33]) was 95%. It also gave a remaining at 0.5 h, 5 µM (UGT [34]) of 96%, an Activity (Trypanosoma cruzi [35]) of 94.6% and a remaining at 1 h, 5 µM (CYP450 [36]) of 91%.
